Reference: ChEMBL document CHEMBL1132392, “Novel derivatives of 3-(dipropylamino)chroman. Interactions with 5-HT1A and D2A receptors” (Bioorg Med Chem Lett, 1999)
pKi: −log10 of the molar value. Activity calls are given as the source filed them. The rule behind the calls is not given here.

What was measured:
[1] = target: T1, D(2) dopamine receptor (Homo sapiens, UniProt P14416); experiment: In vitro ability to inhibit [3H]raclopride binding to cloned human D2A receptors expressed in mouse fibroblast (LtK-) cells; assay type: cell-based
T1 sequence (P14416 whole entry): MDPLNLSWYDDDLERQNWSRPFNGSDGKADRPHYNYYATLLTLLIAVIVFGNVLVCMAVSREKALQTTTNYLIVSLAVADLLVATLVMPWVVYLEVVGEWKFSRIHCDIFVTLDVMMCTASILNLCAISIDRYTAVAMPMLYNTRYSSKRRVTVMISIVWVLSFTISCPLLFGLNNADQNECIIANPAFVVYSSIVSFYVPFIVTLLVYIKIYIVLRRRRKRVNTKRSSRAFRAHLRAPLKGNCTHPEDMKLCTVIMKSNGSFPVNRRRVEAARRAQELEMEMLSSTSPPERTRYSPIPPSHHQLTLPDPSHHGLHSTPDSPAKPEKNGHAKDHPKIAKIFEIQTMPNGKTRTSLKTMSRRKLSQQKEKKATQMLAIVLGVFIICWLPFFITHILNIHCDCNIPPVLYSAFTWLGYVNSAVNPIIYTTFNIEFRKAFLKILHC

[2] = target: T2, 5-hydroxytryptamine receptor 1A (Rattus norvegicus, UniProt P19327); experiment: In vitro ability to inhibit [3H]-8-OH-DPAT binding to 5-hydroxytryptamine 1A receptor in rat cortical membranes; assay type: cell membranes
T2 sequence (P19327 whole entry): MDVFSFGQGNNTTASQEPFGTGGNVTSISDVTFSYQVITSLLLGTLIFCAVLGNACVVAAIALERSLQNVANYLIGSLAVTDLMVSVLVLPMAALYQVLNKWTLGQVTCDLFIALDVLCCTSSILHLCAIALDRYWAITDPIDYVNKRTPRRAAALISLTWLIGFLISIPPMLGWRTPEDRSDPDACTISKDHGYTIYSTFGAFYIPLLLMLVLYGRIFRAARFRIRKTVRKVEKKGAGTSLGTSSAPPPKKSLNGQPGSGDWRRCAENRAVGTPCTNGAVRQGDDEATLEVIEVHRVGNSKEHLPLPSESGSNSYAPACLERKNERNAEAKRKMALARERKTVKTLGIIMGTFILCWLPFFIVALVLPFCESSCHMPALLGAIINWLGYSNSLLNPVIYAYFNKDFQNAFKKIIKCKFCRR

[3] = target: T1, D(2) dopamine receptor; experiment: Agonist activity against human D2A receptor; Active; assay type: functional

SMILES	pKi [1]	pKi [2]	Activity [3]
CCCN(CCC)C1COc2c(cccc2C(=O)c2ccoc2)C1 (stereo not given)	5.87	7.79	
CCCN(CCC)C1COc2cccc(O)c2C1 (stereo not given)	< 5.52	7.08	
CCCN(CCC)C1COc2c(cccc2C(=O)c2ccccc2OC)C1 (stereo not given)	< 6.00	7.22	
CCCN(CCC)C1COc2c(cccc2C(=O)c2ccc(C(F)(F)F)cc2)C1 (stereo not given)	< 6.00	7.33	
CCCN(CCC)C1COc2c(cccc2-c2ccc(C(F)(F)F)cc2)C1 (stereo not given)	6.12	7.20	
CCCN(CCC)C1COc2c(Br)ccc(OC)c2C1 (stereo not given)			Active
CCCN(CCC)C1COc2c(O)cccc2C1 (stereo not given)	6.89	< 5.52	
CCCN(CCC)C1COc2c(SC)ccc(OC)c2C1 (stereo not given)			Active

The remaining molecules from weak to strong by pKi [2], led by results:

pKi [1]	pKi [2]	SMILES	Activity [3]
< 6.00	7.96	CCCN(CCC)C1COc2c(cccc2C(=O)c2ccc(C(C)=O)cc2)C1 (stereo not given)	
< 6.00	7.98	CCCN(CCC)C1COc2c(cccc2C(=O)c2ccc(OC)cc2)C1 (stereo not given)	
< 6.00	8.14	CCCN(CCC)C1COc2c(cccc2C(=O)c2ccsc2)C1 (stereo not given)	
7.32	8.24	CCCN(CCC)C1COc2c(cccc2-c2ccoc2)C1 (stereo not given)	
< 6.00	8.40	CCCN(CCC)C1COc2c(cccc2C(=O)c2ccccc2)C1 (stereo not given)	
	8.89	CCCN(CCC)C1COc2c(cccc2-c2ccc(OC)cc2)C1 (stereo not given)	
< 6.00	8.96	CCCN(CCC)C1COc2c(cccc2-c2ccccc2OC)C1 (stereo not given)	
6.40	8.96	CCCN(CCC)C1COc2c(cccc2-c2ccsc2)C1 (stereo not given)	
	8.96	CCCN(CCC)C1COc2c(cccc2-c2ccccc2)C1 (stereo not given)	
